From US6420422B1, “Ocular hypotensive agents” (Sucampo Pharmaceuticals, Inc., priority 1987, dated 2002)

What was measured:
[1] = prior art statement; cited from earlier work
[2] = system: Japanese White male rabbits; assay: Intraocular pressure reduction and conjunctival hyperemia (Example 5, Table 1 (1)-(6)); type: in vivo; settings: intraocular pressure reduction (%), topical
Method: (§1) For the purpose of tonometry, Japanese White male rabbits (2.5-3.0 Kg) were fixed on braces. After topical anesthetization with 0.4% oxybuprocaine hydrochloride, intraocular pressure was measured using a pheumatic applanation tonometer (manufactured by Japan Alcon). After the topical application of 50 μl of the suspensions of the test drugs in a physiological saline to one eye, the intraocular pressure was measured and the intraocular pressure reduction (%) caused by each test drug was calculated. At the same time, the extent of conjunctival hyperemia was observed.

[3] = system: Japanese White male rabbits; assay: as above; type: in vivo; parameters: key: −: none; +−: barely visible hyperemia; +: slight hyperemia; ++: moderate hyperemia; +++: severe hyperemia; +++*: *: lid-closing and severe hyperemia are observed; settings: extent of conjunctival hyperemia; topical, dose 100 μg/eye
Method: as §1

[4] = system: Japanese White male rabbits; assay: as above; type: in vivo; parameters: key: −: scarcely observed; ±: extremely weak hyperemia; +: slight hyperemia; ++: pronounced hyperemia; +++: severe hyperemia; +++*: *: Lid closure and lacrimation were observed; settings: extent of conjunctival hyperemia, topical
Method: as §1

[5] = system: Japanese White male rabbits; assay: Change in intraocular pressure with time after application (Example 4, FIG. 1); type: in vivo; settings: topical 25 μg/eye, every 1 hr until 6 hr, 6 rabbits per group
Method: FIG. 1 is a graph showing change in intraocular pressure with time after application of prostaglandins E2 to rabbits, wherein applied drugs were as follows:
For the purpose of tonometry, Japanese White male rabbits (2.5-3.0 Kg) were fixed on braces, and after topical anesthetization with 0.4% oxybuprocaine hydrochloride, intraocular pressure was measured using a pheumatic applanation tonometer (manufactured by Japan Alcon K.K.).
The test drugs were suspended in a physiological saline. A 50 μl aliquot […] of the suspension (25 μg/eye of the test drug) was topically applied to one eye. The contralateral control eye received physiological saline. Intraocular pressure was measured at every 1 hr, until 6 hr, after topical application. In this experiment, 6 rabbits per group were used, and the mean values of intraocular pressure of the treated eye at each time were calculated.

CCCCCC(=O)/C=C/[C@@H]1[C@@H](C/C=C\CCCC(=O)O)[C@@H](O)C[C@H]1O [15-keto-PGF2]
Ocular hypotensive activity (in words) [1]: a very little

CCCCC[C@H](O)/C=C/[C@@H]1[C@@H](C/C=C\CCCC(=O)O)[C@@H](O)C[C@H]1O [PGF2]
Ocular hypotensive activity (in words) [1]: high ocular hypotensive activity

CCCCCC(=O)CCC1C=CC(=O)C1C/C=C\CCCC(=O)OCC (stereo not shown) [Test Drug (3), 13,14-dihydro-15-keto-PGA2 ethyl ester]
Percent change of IOP ([2]; dose 100 μg/eye): 24%
Hyperemia [3]: +

CCCCCCCC(=O)CCC1C=CC(=O)C1C/C=C\CCCC(=O)OC(C)C (stereo not shown) [Test Drug (8), 13,14-dihydro-15-keto-20-ethyl-PGA2 isopropyl ester]
Percent change of IOP ([2]; dose 50 μg/eye): 27%
Hyperemia ([4]; dose 50 μg/eye): −

CCCCCC(=O)CCC1C(=O)CC(O)C1C/C=C\CCCC(=O)OCC (stereo not shown) [Test Drug (30), 13,14-dihydro-15-keto-PGD2 ethyl ester]
Percent change of IOP ([2]; dose 250 μg/eye): 20%
Hyperemia ([4]; dose 250 μg/eye): ±

CCCCCC(=O)CCC1C(=O)CC(O)C1CC#CCCCC(=O)OC (stereo not drawn) [Test Drug (34), 13,14-dihydro-15-keto-5,6-dehydro-9β-PGD2 methyl ester]
Percent change of IOP ([2]; dose 250 μg/eye): 23%
Hyperemia ([4]; dose 250 μg/eye): ±

CCCCC(F)C(=O)CCC1C(=O)CC(O)C1C/C=C\CCCC(=O)OC (stereo not shown) [Test Drug (35), 13,14-dihydro-15-keto-16R,S-fluoro-PGD2 methyl ester]
Percent change of IOP ([2]; dose 100 μg/eye): 13%
Hyperemia [3]: +

CCCCCC(=O)CC[C@H]1[C@H](O)CC(=O)[C@@H]1C/C=C\CCCC(=O)O [Test Drug (56), 13,14-dihydro-15-keto-PGE2]
Intraocular pressure response (in words) [5]: ocular hypotensive potency without transient ocular hypertensive response

CCCCC[C@H](O)/C=C/[C@H]1[C@H](O)CC(=O)[C@@H]1C/C=C\CCCC(=O)O [Test Drug (73), PGE2, reference compound]
Intraocular pressure response (in words) [5]: transient ocular hypertensive response

CCCCCCCCC(=O)CCC1C(O)CC(O)C1C/C=C\CCCC(=O)OC (stereo not drawn) [Test Drug (90), 13,14-dihydro-15-keto-20-n-propyl-PGF2^α methyl ester]
Percent change of IOP ([2]; dose 250 μg/eye): 25%
Hyperemia ([4]; dose 250 μg/eye): ±
